Measured values from patent US20030157200A1, “Use of oligosaccharides to stimulate beta-endorphin production” (priority 2000, published 2003).

Test system: normal human keratinocytes
Test: Synthesis/secretion of β-endorphin by normal human keratinocytes, assayed by EIA
Format: cell-based
Details: 24 h; for effect on the production of β-endorphin by normal human keratinocytes (in words): normal human keratinocytes in culture
Method: Norman human keratinocytes are cultivated to the point of confluence on a 24-well plate and then incubated in a culture medium for 24 hours in the presence of dibutiryl CAMP (2 mM), interleukin-1β (IL-1β) (500 pg/ml) and the test product, i.e. in this case either Tephrosia purpurea extracts according to Example 1, or stachyose, or ciceritol, at the doses indicated in Tables I, II and III respectively.
Each Tephrosia extract obtained by the process of Example 1 is provided accurately weighed and redissolved at a concentration of 50 mg/ml in an ethanol/water mixture (1/1).
Antiproteases—aprotinin 5 μg/ml, leupeptin 1 μg/ml and PMSF 1 mM —are added to each well in order to limit the action of the proteases.
Each experimental point is duplicated.
After incubation for 24 h, the culture supernatants are recovered and frozen at −80° C.
Positive stimulation controls are carried out in parallel, the cells being treated for 24 h, as above, with either IL-1β 500 pg/ml or dibutyryl CAMP 2 mM.
The β-endorphin secreted is assayed by EIA (kit from Peninsula Laboratoiries) and expressed in pg/ml.
The procedure followed is the same as in the experiments with Tephrosia purpurea extracts except that stachyose and ciceritol are used at the doses indicated in Table II, and the results obtained are indicated in Table II below.

In the case of `CO[C@H]1[C@H](O)[C@@H](O[C@H]2O[C@H](CO[C@H]3O[C@H](CO)[C@H](O)[C@H](O)[C@H]3O)[C@H](O)[C@H](O)[C@H]2O)[C@@H](O)[C@H](O)[C@@H]1O` [Ciceritol, O-α-D-galactopyranosyl-[1→6]-O-α-D-galactopyranosyl-[1→2]-4-O-methyl-D-chiroinositol], the “β-endorphin secreted” value (20 ng/ml, Table II ciceritol first series, Control 1 ± 2) is reported as 8 ± 3 pg/mL, the “β-endorphin secreted” value (64 ng/ml, Table II ciceritol second series, Control 3 ± 3) is reported as 44 ± 7 pg/mL and the “β-endorphin secreted” value (100 ng/ml, Table II ciceritol first series, Control 1 ± 2) is reported as 8 ± 4 pg/mL. The “β-endorphin secreted” value (500 ng/ml, Table II ciceritol first series, Control 1 ± 2) was 9 ± 5 pg/mL and the “effect on the production of β-endorphin by normal human keratinocytes (in words)” value (“effect on the production of β-endorphin” for short) was “stimulating effect”.

For “IL-1β: interleukin-1β, positive stimulation control”, the “β-endorphin secreted” value (500 pg/ml, positive control, Table I batch B1 block, Control 3 ± 4) was 35 ± 5 pg/mL, the “β-endorphin secreted” value (500 pg/ml, positive control, Table I batch B2 experiment, Control 3 ± 4) was 35 ± 5 pg/mL and the “β-endorphin secreted” value (500 pg/ml, positive control, Table I batch B3 first series, Control 1 ± 1) was 17 ± 3 pg/mL. The “β-endorphin secreted” value (500 pg/ml, positive control, Table I batch B3 second series, Control 1 ± 3) was 25 ± 4 pg/mL, the “β-endorphin secreted” value (500 pg/ml, positive control, Table II ciceritol first series, Control 1 ± 2) was 17 ± 3 pg/mL and the “β-endorphin secreted” value (500 pg/ml, positive control, Table II ciceritol second series, Control 3 ± 3) was 35 ± 3 pg/mL. The “β-endorphin secreted” value (500 pg/ml, positive control, Table II stachyose experiment, Control 10 ± 3) was 25 ± 4 pg/mL and the “effect on the production of β-endorphin” value was “stimulated the production of β-endorphin”.

`OC[C@H]1O[C@H](OC[C@H]2O[C@H](OC[C@H]3O[C@H](O[C@]4(CO)O[C@H](CO)[C@@H](O)[C@@H]4O)[C@H](O)[C@@H](O)[C@@H]3O)[C@H](O)[C@@H](O)[C@H]2O)[C@H](O)[C@@H](O)[C@H]1O` [Stachyose, O-α-D-galactopyranosyl-[1→6]-O-α-D-galactopyranosyl-[1→6]-β-D-fructofuranosyl-α-D-glucopyranoside] was tested, and the “β-endorphin secreted” value (20 ng/ml, Table II stachyose experiment, Control 10 ± 3) was 16 ± 1 pg/mL, the “β-endorphin secreted” value (100 ng/ml, Table II stachyose experiment, Control 10 ± 3) was 22 ± 2 pg/mL and the “β-endorphin secreted” value (500 ng/ml, Table II stachyose experiment, Control 10 ± 3) was 30 ± 13 pg/mL. For the same compound, the “effect on the production of β-endorphin” value was “stimulating effect”.

With `CCCC(=O)Nc1ncnc2c1ncn2[C@@H]1O[C@@H]2COP(=O)(O)O[C@H]2[C@H]1OC(=O)CCC` [dibutyryl cAMP] the “β-endorphin secreted” value (2 mM, positive control, Table I batch B1 block, Control 3 ± 4) was 87 ± 12 pg/mL, the “β-endorphin secreted” value (2 mM, positive control, Table I batch B2 experiment, Control 3 ± 4) was 87 ± 12 pg/mL and the “β-endorphin secreted” value (2 mM, positive control, Table I batch B3 first series, Control 1 ± 1) was 10 ± 1 pg/mL. The “β-endorphin secreted” value (2 mM, positive control, Table I batch B3 second series, Control 1 ± 3) was 22 ± 1 pg/mL, the “β-endorphin secreted” value (2 mM, positive control, Table II ciceritol first series, Control 1 ± 2) was 10 ± 1 pg/mL and the “β-endorphin secreted” value (2 mM, positive control, Table II ciceritol second series, Control 3 ± 3) was 87 ± 8 pg/mL. For the same compound, the “β-endorphin secreted” value (2 mM, positive control, Table II stachyose experiment, Control 10 ± 3) was 22 ± 1 pg/mL and the “effect on the production of β-endorphin” value was “stimulated the production of β-endorphin”.
